The source made the active and inactive calls. Unless noted, the calls are words filed in the database; no cut-off is given here.
How the values were obtained:
Format in all cases: functional
[1] = target: T1, Endoribonuclease toxin MazF (Escherichia coli K-12, UniProt P0AE70); assay: fluorescent RNA oligo signal without MazF, dose response, counter-screen for MazEF activator project, biochemical, fluorescence, single-stranded RNase substrate (AID 588502)
T1 sequence (P0AE70 whole entry): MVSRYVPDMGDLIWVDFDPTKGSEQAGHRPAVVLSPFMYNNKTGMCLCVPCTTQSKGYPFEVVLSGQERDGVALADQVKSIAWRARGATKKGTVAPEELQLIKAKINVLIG

[2] = target: T2, Sentrin-specific protease 1 (Homo sapiens, UniProt Q9P0U3); assay: Dose response confirmation of small molecule inhibitors of the catalytic domain of the SUMO protease, SENP1 in a FRET assay.; settings: read-out: IC50_Mean
T2 sequence (Q9P0U3 whole entry, the tested form may be a part): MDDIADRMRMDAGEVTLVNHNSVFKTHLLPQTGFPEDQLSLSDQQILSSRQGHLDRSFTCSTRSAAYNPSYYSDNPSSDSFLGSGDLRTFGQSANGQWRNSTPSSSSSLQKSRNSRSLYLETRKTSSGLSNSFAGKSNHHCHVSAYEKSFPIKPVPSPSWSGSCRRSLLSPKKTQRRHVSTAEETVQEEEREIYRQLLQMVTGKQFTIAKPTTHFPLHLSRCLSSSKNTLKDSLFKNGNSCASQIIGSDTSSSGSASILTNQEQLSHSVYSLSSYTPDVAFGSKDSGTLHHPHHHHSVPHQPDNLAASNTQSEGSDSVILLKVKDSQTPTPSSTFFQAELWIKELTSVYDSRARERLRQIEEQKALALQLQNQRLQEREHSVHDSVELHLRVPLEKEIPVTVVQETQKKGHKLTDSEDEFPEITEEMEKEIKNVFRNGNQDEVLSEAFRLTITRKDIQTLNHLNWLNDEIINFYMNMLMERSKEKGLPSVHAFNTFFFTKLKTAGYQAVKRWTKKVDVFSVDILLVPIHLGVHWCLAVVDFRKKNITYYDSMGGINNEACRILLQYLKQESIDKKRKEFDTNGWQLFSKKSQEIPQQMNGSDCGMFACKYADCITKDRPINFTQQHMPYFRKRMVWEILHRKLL

[3] = target: T2, Sentrin-specific protease 1; assay: potency of human SENP1 inhibitors, dose response, biochemical, kinetic FRET (AID 651697); settings: read-out: IC50_Mean
[4] = target: T1, Endoribonuclease toxin MazF; assay: MazF toxin RNase activators, dose response, biochemical, fluorescence, single-stranded RNA substrate, uHTS hits (AID 588481)
Caspase-3 = target: T3, Caspase-3 (Homo sapiens, UniProt P42574); assay: Dose-response confirmation of uHTS inhibitor hits of Sentrin-Specific Protease 8 in a Caspase-3 Fluorescence assay.
T3 sequence (P42574 whole entry): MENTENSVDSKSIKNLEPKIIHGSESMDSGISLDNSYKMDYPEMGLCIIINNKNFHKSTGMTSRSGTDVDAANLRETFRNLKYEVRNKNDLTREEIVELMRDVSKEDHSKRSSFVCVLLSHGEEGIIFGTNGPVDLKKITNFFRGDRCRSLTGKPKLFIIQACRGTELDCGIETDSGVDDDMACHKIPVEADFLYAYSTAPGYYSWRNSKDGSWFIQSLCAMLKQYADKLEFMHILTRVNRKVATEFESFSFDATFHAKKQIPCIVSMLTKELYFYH

[5] = target: T4, Sentrin-specific protease 8 (Homo sapiens, UniProt Q96LD8)
T4 sequence (Q96LD8 whole entry): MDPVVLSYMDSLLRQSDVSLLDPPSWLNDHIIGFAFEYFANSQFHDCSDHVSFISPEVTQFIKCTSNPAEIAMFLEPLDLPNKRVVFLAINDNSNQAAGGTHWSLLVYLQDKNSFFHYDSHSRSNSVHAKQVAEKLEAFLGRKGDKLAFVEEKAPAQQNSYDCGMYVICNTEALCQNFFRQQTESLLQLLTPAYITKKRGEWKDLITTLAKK

[6] = target: T4, Sentrin-specific protease 8; remark: listed apart in the source
[7] = target: T5, Diacylglycerol lipase-beta (Mus musculus, UniProt Q91WC9); assay: Late stage assay provider results from the probe development effort to identify inhibitors of diacylglycerol lipase, beta (DAGLb): LCMS-based biochemical dose response assay.
T5 sequence (Q91WC9 whole entry): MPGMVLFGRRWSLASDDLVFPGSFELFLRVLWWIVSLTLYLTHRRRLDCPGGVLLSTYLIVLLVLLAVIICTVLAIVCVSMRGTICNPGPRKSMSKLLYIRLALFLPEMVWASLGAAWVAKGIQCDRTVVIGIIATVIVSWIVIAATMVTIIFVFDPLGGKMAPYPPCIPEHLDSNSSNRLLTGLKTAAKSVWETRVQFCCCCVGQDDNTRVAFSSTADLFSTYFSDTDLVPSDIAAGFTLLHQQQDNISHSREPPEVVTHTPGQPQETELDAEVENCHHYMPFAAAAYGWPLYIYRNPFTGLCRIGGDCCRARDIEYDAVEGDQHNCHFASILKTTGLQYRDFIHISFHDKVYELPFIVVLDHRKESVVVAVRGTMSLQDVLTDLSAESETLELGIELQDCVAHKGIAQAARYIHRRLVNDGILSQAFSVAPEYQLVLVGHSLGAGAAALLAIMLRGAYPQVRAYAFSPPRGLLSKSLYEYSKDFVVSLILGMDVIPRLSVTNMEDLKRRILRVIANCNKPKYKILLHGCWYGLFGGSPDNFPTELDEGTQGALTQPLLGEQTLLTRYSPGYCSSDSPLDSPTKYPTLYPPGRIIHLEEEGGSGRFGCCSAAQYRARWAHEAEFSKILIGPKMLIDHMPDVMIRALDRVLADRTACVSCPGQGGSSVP

[8] = target: Monoacylglycerol lipase ABHD6 (Mus musculus, UniProt Q8R2Y0); assay: Late stage assay provider results from the probe development effort to identify inhibitors of diacylglycerol lipase, beta (DAGLb): fluorescence-based dose-response biochemical gel-based competitive Activity-Based Protein Profiling (ABPP) inhibition of antitarget ABHD6 in vitro, set 2.
Monoacylglycerol lipase ABHD6, sequence (Q8R2Y0 whole entry): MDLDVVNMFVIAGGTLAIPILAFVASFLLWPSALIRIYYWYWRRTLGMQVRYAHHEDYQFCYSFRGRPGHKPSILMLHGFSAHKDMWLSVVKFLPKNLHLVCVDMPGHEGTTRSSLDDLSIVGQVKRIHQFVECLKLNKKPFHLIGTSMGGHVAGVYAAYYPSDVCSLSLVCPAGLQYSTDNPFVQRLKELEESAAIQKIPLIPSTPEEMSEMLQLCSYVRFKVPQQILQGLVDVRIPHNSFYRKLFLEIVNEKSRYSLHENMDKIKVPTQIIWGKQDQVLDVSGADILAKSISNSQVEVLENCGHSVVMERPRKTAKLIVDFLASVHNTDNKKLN

[9] = target: T5, Diacylglycerol lipase-beta; assay: Late stage assay provider results from the probe development effort to identify inhibitors of diacylglycerol lipase, beta (DAGLb): fluorescence-based dose-response biochemical gel-based competitive Activity-Based Protein Profiling (ABPP) inhibition of DAGLb in vitro.
[10] = target: ADP-ribosylation factor GTPase-activating protein 1 (Rattus norvegicus, UniProt Q62848); assay: Fluorescence polarization-based biochemical high throughput dose response screening assay to identify inhibitors of ADP-ribosylation factor GTPase activating protein 1 (ARFGAP1).
ADP-ribosylation factor GTPase-activating protein 1, sequence (Q62848 whole entry): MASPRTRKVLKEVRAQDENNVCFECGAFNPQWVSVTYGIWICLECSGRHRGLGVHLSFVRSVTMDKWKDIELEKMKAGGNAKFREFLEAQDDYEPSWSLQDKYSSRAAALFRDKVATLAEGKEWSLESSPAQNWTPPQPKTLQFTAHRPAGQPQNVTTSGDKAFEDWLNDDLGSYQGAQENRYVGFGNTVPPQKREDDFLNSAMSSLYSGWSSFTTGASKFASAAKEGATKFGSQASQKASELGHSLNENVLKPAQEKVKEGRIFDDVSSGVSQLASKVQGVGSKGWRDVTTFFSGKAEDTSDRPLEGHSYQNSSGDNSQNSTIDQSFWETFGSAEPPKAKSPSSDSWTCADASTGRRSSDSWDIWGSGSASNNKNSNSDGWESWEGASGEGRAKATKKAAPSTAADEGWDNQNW

CN(N=Cc1cccc2cccnc12)c1ccc([N+](=O)[O-])cc1[N+](=O)[O-]
EC50 [1]: 3.55 µM (active) | IC50 [2]: 4.08 µM (active) | IC50 [3]: 8.19 µM (active) | EC50 [4]: > 99 µM (inactive)

COc1ccc(Cc2nnc(SCC(=O)N3CCc4ccccc4C3)o2)cc1
IC50 (Caspase-3): 48.1 µM (active) | IC50 [5]: 10.3 µM (active) | IC50 [6]: 72.5 µM (inactive)

COc1ccccc1-c1ccc(-c2cn(C(=O)N3CCCCC3Cc3ccccc3)nn2)cc1 (stereo unspecified)
IC50 [7]: 0.1 µM (active) | IC50 [8]: 0.001 µM (active) | IC50 [9]: 0.056 µM (active)

Cc1ccc2nc(SCC(=O)Nc3cccc(F)c3)nc(=O)n2c1
IC50 [10]: 44.9 µM (inactive)
